Measured values published in PubChem BioAssay (NCI).
Converted amounts (≈) assume the structure as drawn.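 Values below derive from 48-hour exposures of cells grown in 96-well plates, with endpoints linearly interpolated between the two concentrations bracketing the appropriate inhibition level. The concentration for 50% growth inhibition is given as GI50. TGI is the concentration that stops growth completely.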

Key:
Assay in all cases: NCI-60 cell line screen, 48 h
[1] = test system: NCI-H23 lung
[2] = test system: SF-539 CNS
[3] = test system: HCT-15 colon
[4] = test system: U251 CNS
[5] = test system: PC-3 prostate
[6] = test system: OVCAR-3 ovarian
[7] = test system: A549 NSCLC
[8] = test system: UACC-257 melanoma
[9] = test system: SK-MEL-28 melanoma
[10] = test system: SK-OV-3 ovarian

Row | SMILES | TGI [1] | TGI [2] | TGI [3] | TGI [4] | TGI [5] | TGI [6] | TGI [7] | TGI [8] | TGI [9] | TGI [10] | GI50 [1] [µg/mL] | GI50 [2] [µg/mL] | GI50 [3] [µg/mL] | GI50 [4] [µg/mL] | GI50 [5] [µg/mL] | GI50 [6] [µg/mL] | GI50 [7] [µg/mL] | GI50 [8] [µg/mL] | GI50 [9] [µg/mL] | GI50 [10] [µg/mL]
1 | CCOC(=O)c1csc(NC(=O)C(C)N2CCCC2)n1 (stereo not given) | > 100 µM | > 100 µM | > 100 µM | > 100 µM | > 100 µM | > 100 µM | > 100 µM | > 100 µM | > 100 µM | > 100 µM | – | – | – | – | – | – | – | – | – | –
2 | O=c1oc2ccccc2c(O)c1Cc1ccc(Cc2c(O)c3ccccc3oc2=O)cc1 | > 100 µM | > 100 µM | > 100 µM | > 100 µM | > 100 µM | > 100 µM | > 100 µM | > 100 µM | > 100 µM | > 100 µM | – | – | – | – | – | – | – | – | – | –
3 | O=C1NN(C2=NNC3(C(=O)N2)c2ccccc2-c2ccccc23)C(c2ccccc2)=N/C1=C/c1ccc(Cl)cc1 | > 150 µg/mL | > 150 µg/mL | > 150 µg/mL | 143 µg/mL | > 150 µg/mL | 69.3 µg/mL | > 150 µg/mL | > 150 µg/mL | > 150 µg/mL | > 150 µg/mL | 34.9 (≈ 64.1 µM) | 50.9 (≈ 93.4 µM) | 54.1 (≈ 99.3 µM) | 41.3 (≈ 75.8 µM) | 44.7 (≈ 82.1 µM) | 29.5 (≈ 54.2 µM) | 60.2 (≈ 111 µM) | 68 (≈ 125 µM) | 63 (≈ 116 µM) | 54 (≈ 99.1 µM)
